Test results reported in ChEMBL document CHEMBL3352679, “Structure and evaluation of antibacterial and antitubercular properties of new basic and heterocyclic 3-formylrifamycin SV derivatives obtained via 'click chemistry' approach” (Eur J Med Chem, 2014).
≈ marks a conversion by molar mass, not a printed value.

Legend:
[1] = system: Salmonella enterica subsp. enterica serovar Abony; test: Antibacterial activity against Salmonella abony NCTC 6017 after 18 hrs by serial microdilution method; format: functional; conditions: NCTC 6017, 18 h
[2] = system: Escherichia coli; test: Antibacterial activity against Escherichia coli ATCC 10538 after 18 hrs by serial microdilution method; format: functional; conditions: ATCC 10538, 18 h
[3] = system: Trichophyton rubrum; test: Antifungal activity against Trichophyton rubrum ATCC 28188 after 18 hrs by serial microdilution method; format: functional; conditions: ATCC 28188, 18 h
[4] = system: Staphylococcus aureus; test: Antibacterial activity against Staphylococcus aureus ATCC 25923 after 18 hrs by serial microdilution method; format: functional; conditions: ATCC 25923, 18 h
[5] = system: Staphylococcus aureus; test: Antibacterial activity against Staphylococcus aureus ATCC 6538 after 18 hrs by serial microdilution method; format: functional; conditions: ATCC 6538, 18 h
[6] = system: Staphylococcus epidermidis; test: Antibacterial activity against Staphylococcus epidermidis ATCC 49134 after 18 hrs by serial microdilution method; format: functional; conditions: ATCC 49134, 18 h
[7] = system: Candida albicans; test: Antifungal activity against Candida albicans ATCC 10231 after 18 hrs by serial microdilution method; format: functional; conditions: ATCC 10231, 18 h
[8] = system: Enterococcus faecalis; test: Antibacterial activity against Enterococcus faecalis ATCC 19433 after 18 hrs by serial microdilution method; format: functional; conditions: ATCC 19433, 18 h
[9] = system: Mycobacterium tuberculosis; test: Antituberculosis activity against Mycobacterium tuberculosis H37Rv after 7 days by serial two fold dilution method; format: functional; conditions: 168 h
[10] = system: Staphylococcus epidermidis; test: Antibacterial activity against Staphylococcus epidermidis ATCC 12228 after 18 hrs by serial microdilution method; format: functional; conditions: ATCC 12228, 18 h
[11] = Octanol-water partition coefficient, log P of the compound; format: physicochemical
[12] = system: Staphylococcus aureus; test: Antibacterial activity against Staphylococcus aureus ATCC 4163 after 18 hrs by serial microdilution method; format: functional; conditions: ATCC 4163, 18 h
[13] = Solubility in water at pH 7 and 25 degC by UV-vis spectrophotometry; format: physicochemical

| SMILES | MIC [1] [µg/mL] | MIC [2] [µg/mL] | MIC [3] [µg/mL] | MIC [4] [µg/mL] | MIC [5] [µg/mL] | MIC [6] [µg/mL] | MIC [7] [µg/mL] | MIC [8] [µg/mL] | MIC [9] [µg/mL] | MIC [10] [µg/mL] | logP [11] | MIC [12] [µg/mL] | solubility [13] [µg/mL] |
| --- | --- | --- | --- | --- | --- | --- | --- | --- | --- | --- | --- | --- | --- |
| CO[C@H]1/C=C/O[C@@]2(C)Oc3c(C)c(O)c4c(O)c(c(CNCc5cn(CN6C(=O)c7ccccc7C6=O)nn5)c(O)c4c3C2=O)NC(=O)/C(C)=C\C=C\[C@H](C)[C@H](O)[C@@H](C)[C@@H](O)[C@@H](C)[C@H](OC(C)=O)[C@@H]1C | > 1 | > 1 | > 1 | > 1 | 1 (≈ 1.03 µM) | 0.5 (≈ 0.517 µM) | > 1 | > 1 | 0.25 (≈ 0.259 µM) | 0.5 (≈ 0.517 µM) | 2.24 | 1 (≈ 1.03 µM) | < 10 |
| CO[C@H]1/C=C/O[C@@]2(C)Oc3c(C)c(O)c4c(O)c(c(CNCCCN5CCN(CCCNCc6c7c(O)c8c(O)c(C)c9c(c8c6O)C(=O)[C@@](C)(O/C=C/[C@H](OC)[C@@H](C)[C@@H](OC(C)=O)[C@H](C)[C@H](O)[C@H](C)[C@@H](O)[C@@H](C)/C=C/C=C(/C)C(=O)N7)O9)CC5)c(O)c4c3C2=O)NC(=O)/C(C)=C\C=C\[C@H](C)[C@H](O)[C@@H](C)[C@@H](O)[C@@H](C)[C@H](OC(C)=O)[C@@H]1C | > 1 | > 1 | > 1 | > 1 | > 1 | > 1 | > 1 | > 1 | > 1 | > 1 | 3.83 | > 1 | < 10 |
| CCCc1cn(CCNCc2c3c(O)c4c(O)c(C)c5c(c4c2O)C(=O)[C@@](C)(O/C=C/[C@H](OC)[C@@H](C)[C@@H](OC(C)=O)[C@H](C)[C@H](O)[C@H](C)[C@@H](O)[C@@H](C)/C=C/C=C(/C)C(=O)N3)O5)nn1 | > 1 | > 1 | > 1 | > 1 | 1 (≈ 1.16 µM) | 0.5 (≈ 0.579 µM) | > 1 | > 1 | 1 (≈ 1.16 µM) | 0.5 (≈ 0.579 µM) | 2.14 | 1 (≈ 1.16 µM) | < 10 |
| CO[C@H]1/C=C/O[C@@]2(C)Oc3c(C)c(O)c4c(O)c(c(CNC5CCN(Cc6ccccc6)CC5)c(O)c4c3C2=O)NC(=O)/C(C)=C\C=C\[C@H](C)[C@H](O)[C@@H](C)[C@@H](O)[C@@H](C)[C@H](OC(C)=O)[C@@H]1C | > 1 | > 1 | > 1 | 0.25 (≈ 0.278 µM) | 0.25 (≈ 0.278 µM) | 0.25 (≈ 0.278 µM) | > 1 | > 1 | 0.005 (≈ 0.00556 µM) | 0.25 (≈ 0.278 µM) | 3.25 | 0.25 (≈ 0.278 µM) | < 10 |
| CCCCCc1cn(CCCN2Cc3c4c(O)c5c(O)c(C)c6c(c5c3O)C(=O)[C@@](C)(O/C=C/[C@H](OC)[C@@H](C)[C@@H](OC(C)=O)[C@H](C)[C@H](O)[C@H](C)[C@@H](O)[C@@H](C)/C=C/C=C(/C)C2=N4)O6)nn1 | > 1 | > 1 | > 1 | > 1 | > 1 | > 1 | > 1 | > 1 | 1 (≈ 1.13 µM) | > 1 | 4.47 | 1 (≈ 1.13 µM) | < 10 |
| CO[C@H]1/C=C/O[C@@]2(C)Oc3c(C)c(O)c4c(O)c(c(CNCCCN5CCCC5)c(O)c4c3C2=O)NC(=O)/C(C)=C\C=C\[C@H](C)[C@H](O)[C@@H](C)[C@@H](O)[C@@H](C)[C@H](OC(C)=O)[C@@H]1C | > 1 | > 1 | > 1 | 1 (≈ 1.19 µM) | 0.5 (≈ 0.597 µM) | 0.25 (≈ 0.298 µM) | > 1 | > 1 | 0.5 (≈ 0.597 µM) | 0.5 (≈ 0.597 µM) | 2.04 | 0.5 (≈ 0.597 µM) | 240 (≈ 286 µM) |
| CO[C@H]1/C=C/O[C@@]2(C)Oc3c(C)c(O)c4c(O)c(c(CNCCN5CCCC5)c(O)c4c3C2=O)NC(=O)/C(C)=C\C=C\[C@H](C)[C@H](O)[C@@H](C)[C@@H](O)[C@@H](C)[C@H](OC(C)=O)[C@@H]1C | 1 (≈ 1.21 µM) | 1 (≈ 1.21 µM) | 1 (≈ 1.21 µM) | 1 (≈ 1.21 µM) | 1 (≈ 1.21 µM) | 0.5 (≈ 0.607 µM) | 1 (≈ 1.21 µM) | 1 (≈ 1.21 µM) | 0.5 (≈ 0.607 µM) | 0.5 (≈ 0.607 µM) | 1.55 | 1 (≈ 1.21 µM) | 240 (≈ 291 µM) |
| CO[C@H]1/C=C/O[C@@]2(C)Oc3c(C)c(O)c4c(O)c(c(CNCCN(C)C)c(O)c4c3C2=O)NC(=O)/C(C)=C\C=C\[C@H](C)[C@H](O)[C@@H](C)[C@@H](O)[C@@H](C)[C@H](OC(C)=O)[C@@H]1C | > 1 | > 1 | > 1 | > 1 | 1 (≈ 1.25 µM) | 0.5 (≈ 0.627 µM) | > 1 | > 1 | > 1 | 0.5 (≈ 0.627 µM) | 1.48 | 1 (≈ 1.25 µM) | 320 (≈ 401 µM) |
| CO[C@H]1/C=C/O[C@@]2(C)Oc3c(C)c(O)c4c(O)c5c(c(O)c4c3C2=O)CN(Cc2cn(CN3C(=O)c4ccccc4C3=O)nn2)C(=N5)/C(C)=C\C=C\[C@H](C)[C@H](O)[C@@H](C)[C@@H](O)[C@@H](C)[C@H](OC(C)=O)[C@@H]1C | > 1 | > 1 | > 1 | > 1 | > 1 | > 1 | > 1 | > 1 | 0.5 (≈ 0.527 µM) | > 1 | 3.26 | 1 (≈ 1.05 µM) | < 10 |
| CCCCCc1cn(CCCNCc2c3c(O)c4c(O)c(C)c5c(c4c2O)C(=O)[C@@](C)(O/C=C/[C@H](OC)[C@@H](C)[C@@H](OC(C)=O)[C@H](C)[C@H](O)[C@H](C)[C@@H](O)[C@@H](C)/C=C/C=C(/C)C(=O)N3)O5)nn1 | > 1 | > 1 | > 1 | > 1 | 1 (≈ 1.1 µM) | 0.5 (≈ 0.552 µM) | > 1 | > 1 | 0.5 (≈ 0.552 µM) | 0.5 (≈ 0.552 µM) | 3.42 | 1 (≈ 1.1 µM) | < 10 |
| CO[C@H]1/C=C/O[C@@]2(C)Oc3c(C)c(O)c4c(O)c(c(/C=N/N5CCN(C)CC5)c(O)c4c3C2=O)NC(=O)/C(C)=C\C=C\[C@H](C)[C@H](O)[C@@H](C)[C@@H](O)[C@@H](C)[C@H](OC(C)=O)[C@@H]1C [RIFAMPIN] | > 1 | > 1 | > 1 | 0.016 (≈ 0.0194 µM) | 0.008 (≈ 0.00972 µM) | 0.004 (≈ 0.00486 µM) | > 1 | 1 (≈ 1.22 µM) | 0.005 (≈ 0.00608 µM) | 0.004 (≈ 0.00486 µM) | 1.66 | 0.008 (≈ 0.00972 µM) | – |
| CO[C@H]1/C=C/O[C@@]2(C)Oc3c(C)c(O)c4c(O)c(c(CNCCCn5ccnc5)c(O)c4c3C2=O)NC(=O)/C(C)=C\C=C\[C@H](C)[C@H](O)[C@@H](C)[C@@H](O)[C@@H](C)[C@H](OC(C)=O)[C@@H]1C | > 1 | > 1 | > 1 | 1 (≈ 1.2 µM) | 0.5 (≈ 0.599 µM) | 0.25 (≈ 0.299 µM) | > 1 | > 1 | 1 (≈ 1.2 µM) | 0.5 (≈ 0.599 µM) | 1.78 | 0.5 (≈ 0.599 µM) | 330 (≈ 395 µM) |
| CCCc1cn(CCN2Cc3c4c(O)c5c(O)c(C)c6c(c5c3O)C(=O)[C@@](C)(O/C=C/[C@H](OC)[C@@H](C)[C@@H](OC(C)=O)[C@H](C)[C@H](O)[C@H](C)[C@@H](O)[C@@H](C)/C=C/C=C(/C)C2=N4)O6)nn1 | > 1 | > 1 | > 1 | > 1 | > 1 | > 1 | > 1 | > 1 | 1 (≈ 1.18 µM) | > 1 | 3.13 | 1 (≈ 1.18 µM) | < 10 |
| CO[C@H]1/C=C\O[C@@]2(C)Oc3c(C)c(O)c4c(O)c(c(CNC5CCN(Cc6ccccc6)CC5)c(O)c4c3C2=O)NC(=O)/C(C)=C\C=C/[C@H](C)[C@H](O)[C@@H](C)[C@@H](O)[C@@H](C)[C@H](OC(C)=O)[C@@H]1C | – | – | – | 0.25 (≈ 0.278 µM) | 0.125 (≈ 0.139 µM) | 0.03 (≈ 0.0333 µM) | – | – | 0.005 (≈ 0.00556 µM) | 0.06 (≈ 0.0667 µM) | 2.05 | 0.125 (≈ 0.139 µM) | 150 (≈ 167 µM) |
| CO[C@H]1/C=C/O[C@@]2(C)Oc3c(C)c(O)c4c(O)c(c(C=O)c(O)c4c3C2=O)NC(=O)/C(C)=C\C=C\[C@H](C)[C@H](O)[C@@H](C)[C@@H](O)[C@@H](C)[C@H](OC(C)=O)[C@@H]1C | > 1 | > 1 | > 1 | > 1 | > 1 | > 1 | > 1 | > 1 | > 1 | > 1 | 1.71 | > 1 | 100 (≈ 138 µM) |
